Test results reported in patent US20250034136A1 (Nimbus Wadjet, Inc., priority 2023, published 2025).

Assays:
[1] = system: p21 induction in HCT116 cells; assay: p21 induction in HCT116 cells; type: cell-based; details: Homo sapiens, HCT-116, 24 h, HCT116 cells, 24 h compound incubation; read-out: P21_EC50
Procedure, shortened: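 HCT116 cells, 2,000/well, treated 24 h at 37 °C with 11-point compound dilutions in duplicate. Fixed, then immunostained for p21 and GAPDH and read by near-IR imaging at 800/700 nm. Normalized to DMSO (low) and reference WRN inhibitor (high) controls; EC50 from non-linear regression.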

[2] = molecular target: WRN (BV08), human Werner helicase (Uniprot Q14191, amino acids 517-1235 with L1074F point mutation) (Homo sapiens (Human), UniProt Q14191, L1074F); assay: WRN (BV08) ADP-Glo assay; type: biochemical; details: class symbols A-E, read-out: ADP-Glo_hWRN_IC50
Sequence of WRN (BV08), human Werner helicase (Uniprot Q14191, amino acids 517-1235 with L1074F point mutation) (Q14191 other isoform, or with tags, fused parts or gaps L1074F (already in the parent)): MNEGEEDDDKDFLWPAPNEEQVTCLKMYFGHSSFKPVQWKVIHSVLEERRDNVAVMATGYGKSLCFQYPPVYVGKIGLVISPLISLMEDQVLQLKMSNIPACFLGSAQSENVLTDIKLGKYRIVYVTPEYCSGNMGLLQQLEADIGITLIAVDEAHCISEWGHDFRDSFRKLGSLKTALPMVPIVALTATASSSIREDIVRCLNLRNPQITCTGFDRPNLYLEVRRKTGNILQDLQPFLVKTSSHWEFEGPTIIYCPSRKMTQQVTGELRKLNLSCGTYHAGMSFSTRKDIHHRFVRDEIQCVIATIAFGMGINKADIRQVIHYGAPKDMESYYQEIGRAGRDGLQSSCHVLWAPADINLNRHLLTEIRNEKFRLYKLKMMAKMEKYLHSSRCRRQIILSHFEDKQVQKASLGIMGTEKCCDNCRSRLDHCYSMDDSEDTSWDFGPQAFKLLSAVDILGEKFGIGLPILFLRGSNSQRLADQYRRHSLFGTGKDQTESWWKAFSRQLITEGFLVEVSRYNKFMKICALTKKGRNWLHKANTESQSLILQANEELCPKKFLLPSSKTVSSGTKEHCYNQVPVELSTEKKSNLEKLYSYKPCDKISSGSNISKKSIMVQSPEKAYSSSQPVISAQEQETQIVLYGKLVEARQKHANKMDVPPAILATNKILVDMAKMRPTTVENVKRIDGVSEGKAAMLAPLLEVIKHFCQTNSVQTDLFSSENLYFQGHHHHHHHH

| EC50 [1] [nM] | IC50 [2] [nM] | SMILES |
| --- | --- | --- |
| > 5000 | 5 to 50 | CCc1c(N2CCN(C(=O)c3ncnc(C)c3O)CC2)c(=O)c2nc(-c3ccnn3C)cnc2n1CC(=O)Nc1ccc(C(F)(F)F)cc1Cl [I-137, N-[2-chloro-4-(trifluoromethyl)phenyl]-2-{6-ethyl-7-[4-(5-hydroxy-6-methylpyrimidine-4-carbonyl)piperazin-1-yl]-2-(1-methyl-1H-pyrazol-5-yl)-8-oxo-5H,8H-pyrido[2,3-b]pyrazin-5-yl}acetamide] |
| > 5000 | 5 to 50 | CCc1c(N2CCN(C(=O)c3ncnc(C)c3O)CC2)c(=O)c2nc(/C=C/C(C)(C)O)cnc2n1CC(=O)Nc1ccc(C(F)(F)F)cc1Cl [I-138, N-[2-chloro-4-(trifluoromethyl)phenyl]-2-{6-ethyl-2-[(1E)-3-hydroxy-3-methylbut-1-en-1-yl]-7-[4-(5-hydroxy-6-methylpyrimidine-4-carbonyl)piperazin-1-yl]-8-oxo-5H,8H-pyrido[2,3-b]pyrazin-5-yl}acetamide] |
| > 5000 | > 500 | CCc1c(N2CCN(C(=O)c3ncnc(C)c3O)CC2)c(=O)c2nc(OC3COC3)cnc2n1CC(=O)Nc1ccc(C(F)(F)F)cc1Cl [I-140, N-[2-chloro-4-(trifluoromethyl)phenyl]-2-{6-ethyl-7-[4-(5-hydroxy-6-methylpyrimidine-4-carbonyl)piperazin-1-yl]-2-(oxetan-3-yloxy)-8-oxo-5H,8H-pyrido[2,3-b]pyrazin-5-yl}acetamide] |
| 500 to 2000 | ≤ 5 | CCc1c(N2CCN(C(=O)c3ncnc(C)c3O)CC2)c(=O)c2nc(/C=C3\CCC3C)cnc2n1CC(=O)Nc1ccc(C(F)(F)F)cc1Cl (stereo not shown) [I-142, N-[2-chloro-4-(trifluoromethyl)phenyl]-2-{6-ethyl-7-[4-(5-hydroxy-6-methylpyrimidine-4-carbonyl)piperazin-1-yl]-2-[(2-methylcyclobutylidene)methyl]-8-oxo-5H,8H-pyrido[2,3-b]pyrazin-5-yl}acetamide] |
| 500 to 2000 | ≤ 5 | CCc1c(N2CCN(C(=O)c3ncnc(C)c3O)CC2)c(=O)c2nc(/C=C/C3CCC3)cnc2n1CC(=O)Nc1ccc(C(F)(F)F)cc1Cl [I-144, N-[2-chloro-4-(trifluoromethyl)phenyl]-2-{2-[(1E)-2-cyclobutylethenyl]-6-ethyl-7-[4-(5-hydroxy-6-methylpyrimidine-4-carbonyl)piperazin-1-yl]-8-oxo-5H,8H-pyrido[2,3-b]pyrazin-5-yl}acetamide] |
| > 5000 | 5 to 50 | CCc1c(N2CCN(C(=O)c3c(C#N)cnc(C)c3O)CC2)c(=O)c2ncc(C)nc2n1CC(=O)Nc1ccc(C(F)(F)F)cc1Cl [I-145, N-[2-chloro-4-(trifluoromethyl)phenyl]-2-{7-[4-(5-cyano-3-hydroxy-2-methylpyridine-4-carbonyl)piperazin-1-yl]-6-ethyl-3-methyl-8-oxo-5H,8H-pyrido[2,3-b]pyrazin-5-yl}acetamide] |
| > 5000 | 5 to 50 | CCc1c(N2CCCN(C(=O)c3ncnc(C)c3O)CC2)c(=O)c2nc(N(C)C)cnc2n1CC(=O)Nc1ccc(C(F)(F)F)cc1Cl [I-147, N-[2-chloro-4-(trifluoromethyl)phenyl]-2-[2-(dimethylamino)-6-ethyl-7-[4-(5-hydroxy-6-methylpyrimidine-4-carbonyl)-1,4-diazepan-1-yl]-8-oxo-5H,8H-pyrido[2,3-b]pyrazin-5-yl]acetamide] |
| > 5000 | 5 to 50 | CCc1c(N2CCN(C(=O)c3ncnc(C)c3O)CC2)c(=O)c2nc(N(C)C)cnc2n1CC(=O)Nc1c(F)cc(C(F)(F)F)cc1F [I-148, N-[2,6-difluoro-4-(trifluoromethyl)phenyl]-2-[2-(dimethylamino)-6-ethyl-7-[4-(5-hydroxy-6-methylpyrimidine-4-carbonyl)piperazin-1-yl]-8-oxo-5H,8H-pyrido[2,3-b]pyrazin-5-yl]acetamide] |
| 500 to 2000 | 5 to 50 | CCc1c(N2CCN(C(=O)c3ncnc(C)c3O)CC2)c(=O)c2nc(N3CCC[C@@H]3C)cnc2n1CC(=O)Nc1ccc(C(F)(F)F)cc1Cl [I-149, N-[2-chloro-4-(trifluoromethyl)phenyl]-2-{6-ethyl-7-[4-(5-hydroxy-6-methylpyrimidine-4-carbonyl)piperazin-1-yl]-2-[(2S)-2-methylpyrrolidin-1-yl]-8-oxo-5H,8H-pyrido[2,3-b]pyrazin-5-yl}acetamide] |
| 500 to 2000 | 5 to 50 | CCc1c(N2CCN(C(=O)c3ncnc(C)c3O)CC2)c(=O)c2nc(N3CCC[C@H]3C)cnc2n1CC(=O)Nc1ccc(C(F)(F)F)cc1Cl [I-150, N-[2-chloro-4-(trifluoromethyl)phenyl]-2-{6-ethyl-7-[4-(5-hydroxy-6-methylpyrimidine-4-carbonyl)piperazin-1-yl]-2-[(2R)-2-methylpyrrolidin-1-yl]-8-oxo-5H,8H-pyrido[2,3-b]pyrazin-5-yl}acetamide] |
| 2000 to 5000 | 5 to 50 | CCc1c(N2CCN(C(=O)c3ncnc(C)c3O)CC2)c(=O)c2nc(N3CCC4(CCC4)C3)cnc2n1CC(=O)Nc1ccc(C(F)(F)F)cc1Cl [I-151, 2-(2-{6-azaspiro[3.4]octan-6-yl}-6-ethyl-7-[4-(5-hydroxy-6-methylpyrimidine-4-carbonyl)piperazin-1-yl]-8-oxo-5H,8H-pyrido[2,3-b]pyrazin-5-yl)-N-[2-chloro-4-(trifluoromethyl)phenyl]acetamide] |
| > 5000 | 5 to 50 | CCc1c(N2CCN(C(=O)c3ncnc(C)c3O)CC2)c(=O)c2nc(N3CCCC3C(C)(C)O)cnc2n1CC(=O)Nc1ccc(C(F)(F)F)cc1Cl (stereo not shown) [I-152, N-[2-chloro-4-(trifluoromethyl)phenyl]-2-{6-ethyl-7-[4-(5-hydroxy-6-methylpyrimidine-4-carbonyl)piperazin-1-yl]-2-[2-(2-hydroxypropan-2-yl)pyrrolidin-1-yl]-8-oxo-5H,8H-pyrido[2,3-b]pyrazin-5-yl}acetamide] |
| 2000 to 5000 | 5 to 50 | CCc1c(N2CCN(C(=O)c3ncnc(C)c3O)CC2)c(=O)c2nc(N3CCC[C@H]3C(C)(C)O)cnc2n1CC(=O)Nc1ccc(C(F)(F)F)cc1Cl [I-153, N-[2-chloro-4-(trifluoromethyl)phenyl]-2-{6-ethyl-7-[4-(5-hydroxy-6-methylpyrimidine-4-carbonyl)piperazin-1-yl]-2-[(2S)-2-(2-hydroxypropan-2-yl)pyrrolidin-1-yl]-8-oxo-5H,8H-pyrido[2,3-b]pyrazin-5-yl}acetamide] |
| > 5000 | > 500 | CCc1c(N2CCN(C(=O)c3ncnc(C)c3O)CC2)c(=O)c2nc(N(C)CCN(C)C)cnc2n1CC(=O)Nc1ccc(C(F)(F)F)cc1Cl [I-154, N-[2-chloro-4-(trifluoromethyl)phenyl]-2-(2-{[2-(dimethylamino)ethyl](methyl)amino}-6-ethyl-7-[4-(5-hydroxy-6-methylpyrimidine-4-carbonyl)piperazin-1-yl]-8-oxo-5H,8H-pyrido[2,3-b]pyrazin-5-yl)acetamide] |
| > 5000 | 50 to 100 | CCc1c(N2CCN(C(=O)c3ncnc(C)c3O)CC2)c(=O)c2nc(N3C[C@@H]4[C@H](C3)[C@H]4N(C)C)cnc2n1CC(=O)Nc1ccc(C(F)(F)F)cc1Cl [I-155, N-[2-chloro-4-(trifluoromethyl)phenyl]-2-{2-[(1R,5S,6S)-6-(dimethylamino)-3-azabicyclo[3.1.0]hexan-3-yl]-6-ethyl-7-[4-(5-hydroxy-6-methylpyrimidine-4-carbonyl)piperazin-1-yl]-8-oxo-5H,8H-pyrido[2,3-b]pyrazin-5-yl}acetamide] |
| 500 to 2000 | 5 to 50 | CCc1c(N2CCN(C(=O)c3ncnc(C)c3O)CC2)c(=O)c2nc(N3CC4CC4C3)cnc2n1CC(=O)Nc1ccc(C(F)(F)F)cc1Cl (stereo not shown) [I-156, 2-(2-{3-azabicyclo[3.1.0]hexan-3-yl}-6-ethyl-7-[4-(5-hydroxy-6-methylpyrimidine-4-carbonyl)piperazin-1-yl]-8-oxo-5H,8H-pyrido[2,3-b]pyrazin-5-yl)-N-[2-chloro-4-(trifluoromethyl)phenyl]acetamide] |
| 500 to 2000 | 5 to 50 | C=C(F)c1cnc2c(n1)c(=O)c(N1CCN(C(=O)c3ncnc(C)c3O)CC1)c(CC)n2CC(=O)Nc1ccc(C(F)(F)F)cc1Cl [I-157, N-[2-chloro-4-(trifluoromethyl)phenyl]-2-[6-ethyl-2-(1-fluoroethenyl)-7-[4-(5-hydroxy-6-methylpyrimidine-4-carbonyl)piperazin-1-yl]-8-oxo-5H,8H-pyrido[2,3-b]pyrazin-5-yl]acetamide] |
| > 5000 | 5 to 50 | CCc1c(N2CCN(C(=O)c3c(C#N)cnc(C)c3O)CC2)c(=O)c2nc(C)cnc2n1CC(=O)Nc1ccc(C(F)(F)F)cc1Cl [I-158, N-[2-chloro-4-(trifluoromethyl)phenyl]-2-{7-[4-(5-cyano-3-hydroxy-2-methylpyridine-4-carbonyl)piperazin-1-yl]-6-ethyl-2-methyl-8-oxo-5H,8H-pyrido[2,3-b]pyrazin-5-yl}acetamide] |
| > 5000 | 5 to 50 | CCc1c(N2CCN(C(=O)c3ncnc(C)c3O)CC2)c(=O)c2nc(C3=CCN(C(=O)OC)C3)cnc2n1CC(=O)Nc1ccc(C(F)(F)F)cc1Cl [I-159, methyl 3-[5-({[2-chloro-4-(trifluoromethyl)phenyl]carbamoyl}methyl)-6-ethyl-7-[4-(5-hydroxy-6-methylpyrimidine-4-carbonyl)piperazin-1-yl]-8-oxo-5H,8H-pyrido[2,3-b]pyrazin-2-yl]-2,5-dihydro-1H-pyrrole-1-carboxylate] |

| SMILES | EC50 [1] [nM] | IC50 [2] [nM] |
| --- | --- | --- |
| CCc1c(N2CCN(C(=O)c3ncnc(C)c3O)CC2)c(=O)c2nc(OC3CCC3)cnc2n1CC(=O)Nc1ccc(C(F)(F)F)cc1Cl [I-141, N-[2-chloro-4-(trifluoromethyl)phenyl]-2-{2-cyclobutoxy-6-ethyl-7-[4-(5-hydroxy-6-methylpyrimidine-4-carbonyl)piperazin-1-yl]-8-oxo-5H,8H-pyrido[2,3-b]pyrazin-5-yl}acetamide] | > 5000 | 5 to 50 |
